Measurements: patent US10328051B2, “Proline or proline derivatives for the treatment of dementia” (priority 2014, dated 2019)
Entries after “also recorded” stand apart in the source; their conditions may differ.

Columns and labels:
[1] = Tissue distribution, bioaccumulation and pharmacokinetics following multiple dose administration of 3H-CHP in mice (Study IPSS E015); type: in vivo
Source text: Example 2. A Study in Mice on the Tissue Distribution, Bioaccumulation and Pharmacokinetics in Tissues, Connective and BrainTissues Following Multiple Dose Administration of ^3H-CHP Study No. IPSS E015 (FIG. 2)
According to this invention the study has been designed and performed as follows:
From each mouse sacrificed, the following organs & tissues samples were taken:
Liver, kidney, pancreas, limbic system, spinal fluid, brain stem, cerebrum, cerebellum, cartilage, ligaments and tendons (dense or fibrous connective tissue), loose connective tissue, and reticular connective tissue (supports lymph nodes, bone marrow, and spleen)

hepatic fibrosis = assay: Phase II clinical study IPSS-B025: anti-fibrotic efficacy in chronic liver diseases; type: in vivo, human
Source text: Title: Phase II—CHP in patients with chronic viral hepatitis, chronic alcohol liver diseases without cirrhosis or primary sclerosing cholangitis 45 patients—Study IPSS-B025 (Example 12.4).

[2] = Multiple dose ascending bioavailability and safety study (Phase I) with oral CHP (Study 0202-71); type: in vivo, human
Protocol: Example 5—Study Title: Multiple Dose Ascending Bioavailability and Safety Study Phase 1 with Oral CHP-GALMED Study No: 0202-71
12 healthy Caucasian males were recruited (age: 18-45 years).
Multiple doses of CHP were orally administered: • 4×2.0 g CHP per day, for 14 consecutive days (total daily dose=8.0 g CHP) • 4×3.0 g CHP per day, for 14 consecutive days (total daily dose=12.0 g CHP) Each dose level was administered to all volunteers.
Objectives • To determine the pharmacokinetic parameters and safety of CHP and THP in plasma following oral administration of multiple doses of 8 g CHP (4×2 g) and 12 g CHP (4×3 g)—4× daily, τ=6 h, respectively, in 12 healthy subjects on Day 1 and Day 14. • To model and simulate plasma concentrations of CHP and THP during Days 1 to 14.

[3] = Tissue distribution and pharmacokinetics of single dose of radiolabelled 3H-CHP in mice (Study IPSS C053); type: in vivo; details: single dose 3H-CHP
Source text: Example 1: Tissue Distribution and Pharmacokinetic Study with CHP Study “Clinical Study in Mice on the Tissue Distribution and Pharmacokinetics of Single Dose of the Radiolabelled ^3H-CHP-Study No.: IPSS C053”—(FIG. 1). This Study has been Designed and Performed According to this Invention
1. Determination of ^3H-CHP distribution in 25 tissues, remaining carcass and whole blood over time.
2. Determination of pharmacokinetic parameters of CHP.
3. Comparison of intravenous (IV), and oral routes of administration.
^3H-CHP Labelling • CHP was labelled on the 4-prime position using tritium. • The scintillation counting technique detects the tritium atom. • Therefore the counting technique detects CHP and some metabolites which incorporate the tritium. […] They were selected using inclusion and exclusion criteria, and were therefore highly standardised.
Dosing Regimen • 48 animals were each administered 50 μCi ^3H-CHP at the start of the experiment. This was termed time zero (00:00 hrs). • 27 mice were dosed via the intravenous (IV) route. • 21 mice were dosed via the oral route. • Six (6) animals were not administered with CHP. They form two control groups of 3 mice each.
Data Collection • 3 mice were sacrificed following the SOP for anesthesia and according to the following time intervals
Sample Collection • From each sacrificed mouse, the following samples were taken: • Whole BloodEyes & Harderian GlandsKidneys & Adrenal GlandsAortaLiverLungSpleenUrinary BladderBone & Bone MarrowCaecumSmall IntestineLarge IntestineLymph Nodes (Mesenteric) Muscle, PancreasBrain & Pituitary GlandBrown FatSubcutaneous FatHeartThymousBoth TestesProstateSkinStomachThyroidSalivary GlandsRemaining CarcassUrine (collected if possible: in practise this was rare)
The remaining carcass sample consisted of the rest after removal of whole blood and the other tissues. Any material cleaned from other tissues listed above was also included. The collected remainings were homogenised before analysis.

[4] = system: patients with advanced cancer disease; assay: Efficacy, safety and Quality of Life of 25 clinical cases with advanced cancer treated with oral and intravenous CHP; type: in vivo, human
Source text: Example 11—Study Title: Evaluation of the Efficacy, Safety and Quality of Life (QoL) of 25 Clinical Cases in Patients with Advanced Cancer Disease Treated with Oral and Intravenous Formulations of Cis-4-Hydroxy-L-Proline (CHP)
25 patients (15 female and 10 male) have been treated with oral and/or intravenous CHP: • Mean age was over 60 years with maximum of 82 and minimum of 36 years. • 15 Patients considered as “elderly patients”—60-82 years (60%) • Patients 50-60 years (20%) • No further demographic data were documented. • Complete clinical case documents have been prepared for each patient.

[5] = system: adenocarcinoma and liver metastases, pancreatic cancer and bladder cancer; assay: Phase II clinical studies IPSS-A04, IPSS-B013, IPSS-D002: anti-tumour activity; type: in vivo, human
Source text: Title: Phase II—CHP as antitumour agent in patients with resected colorectal cancer and liver metastasis; 60 patients—Study IPSS-A04 (Example 12.1).
Title: Phase II—CHP in patients with locally advanced or metastatic pancreatic cancer—14 patients Study IPSS B013 (Example 12.2).
Title: Evaluation of safety and efficacy of CHP in patients with urogenital Cancer—25 patients—Study IPSS-D002 (Example 12.3).

[6] = system: Alpha Glutathione S-Transferase (α-GST); assay: Measurement of α-Glutathione-S-Transferase following multiple dose administration of CHP (Study 0202-71); type: in vivo, human; details: healthy volunteers
Source text: Example 6—Measurement of α-Glutathione-S-Transferase Following Multiple Dose Administration of CHP (Study 0202-71)—(FIG. 7)
Study title: Measurement of α-Glutathione-S-Transferase following multiple dose administration of CHP (Study 0202-71)
12 healthy Caucasian males were recruited (age: 18-45 years). Multiple doses of CHP were orally administered: • 4×2.0 g CHP per day, for 14 consecutive days (total daily dose=8.0 g CHP) • 4×3.0 g CHP per day, for 14 consecutive days (total daily dose=12.0 g CHP)
To determine the effect of CHP on the blood concentration of Alpha Glutathione S-Transferase (α-GST) following the administration of: • 4×2.0 g CHP per day, for 14 consecutive days (total daily dose=8.0 g CHP) • 4×3.0 g CHP per day, for 14 consecutive days (total daily dose=12.0 g CHP)
The P-value obtained was 0.0017, indicating a 99.8% that the decreased observed was not the result of chance. A one-sample two-sided t-test was used, using the data from day 0-day 17.

[7] = repeated oral dose of 3H-CHP for 7 consecutive days
[8] = male, human, plasma, healthy subjects, oral 4×2.0 g CHP/day
[9] = oral CHP, administration 4× daily

## O=C(O)[C@@H]1C[C@H](O)CN1 [CHP, cis-4-hydroxy-L-proline]
[1]; repeated dose of oral aqueous solution of 3H-CHP
  Penetration of the BBB: Excellent penetration of the BBB
[1]; [7]
  AUC as % of total administered CHP in cerebrum, cerebelium, brain stem, limbic system and spinal fluid: 14.9%
  AUC as % of total administered CHP in loose connective tissues, cartilage, reticular connective tissue, dense/fibrous connective tissue, bone and bone marrow: 35%
  Half-Life time in cerebrum, cerebelium, brain stem and limbic system: 32.30 to 42.70 h
Hepatic fibrosis
  Anti-fibrotic efficacy in patients suffering from chronic liver diseases: inhibited the hepatic fibrosis; also recorded: antifibrotic efficacy; also recorded: anti-fibrotic efficacy; also recorded: anti-fibrotic activities
[2]; [8]
  Cmax: 52.3 µg/mL
  Tmax: 58.8 min
  half-life: 2060 min
[2]; male, human, plasma, healthy subjects, oral 4×2.0 g CHP/day, read-out: MRT (0-inf)
  MRT inf: 9.33 h
[2]; multiple oral doses of CHP
  Accumulation following oral administration: extensive
[2]; multiple oral doses of CHP, 4× daily, simulation of plasma concentration-time curves
  Time after which a steady state was observed: approximately 48 h
[2]; oral CHP 4× daily, τ=6 h
  Plasma half-life relative to the dosing interval: approximately 4 times
[2]; [9]
  Css,min lower if 2.0 g of CHP was administered (versus 3.0 g): 36%
  Increase of AUCss,t, Css,max and Css,ave when the dose was increased from 2.0 g up to 3.0 g: approximately 50%
[3]
  Maximal concentration in the brain following oral administration in comparison to the intravenous application: approximately 48%
[3]; concentration observed in brain & pituitary gland
  Crossing of the blood-brain barrier: can cross the blood-brain barrier
[4]; 1-13 month, 2-22 gram/day CHP as monotherapy, 25 patients
  Tolerability of long-term treatment: well tolerated
[4]; 25 patients with advanced cancer, CHP monotherapy
  Toxic side effects, adverse events: No adverse events or side effects occurred were clinically relevant; also recorded: no toxic side effects or serious adverse events
[4]; advanced cancer patients treated with CHP
  Healing: In one case healing was achieved
[4]; advanced cancer, no progression, no ascites, no obstruction
  Course of disease in most of the patients: quite long time of stable disease
[5]
  Anti-tumour activity in patients: anti-tumour activities
[6]; multiple oral doses of CHP for 14 days
  Liver cell damage: no effect of liver cell damage
[6]; oral 4×2.0 g or 4×3.0 g CHP per day for 14 days, P-value 0.0017, one-sample two-sided t-test, day 0-day 17
  α-GST levels in blood: inhibits significantly; also recorded: highly significant
